In patent US20250011368A1, “DLL3 TARGETING PEPTIDES AND CONSTRUCTS THEREOF” (MARIANA ONCOLOGY INC., priority 2023, published 2025):
Bridge positions count the residues as written; N and C are the ends. Square brackets hold non-standard residues; d marks the D form. Side chains are listed from the residue outwards. Peptide text beside a SMILES is read from it. * marks the point of attachment. ξ: configuration not given here. DOTA = O=C(O)CN1CCN(CC(=O)O)CCN(CC(=O)*)CCN(CC(=O)O)CC1; 2Nal = N[C@@H](Cc1ccc2ccccc2c1)C(=O)O; ξW = NC(Cc1c[nH]c2ccccc12)C(=O)O; Thr(3ξ) = CC(O)[C@H](N)C(=O)O; PEG4 = NCCOCCOCCOCCOCCC(=O)O

Molecular target: T1, human DLL3 (Homo sapiens, UniProt Q9NYJ7)
T1 sequence (Q9NYJ7 27-618): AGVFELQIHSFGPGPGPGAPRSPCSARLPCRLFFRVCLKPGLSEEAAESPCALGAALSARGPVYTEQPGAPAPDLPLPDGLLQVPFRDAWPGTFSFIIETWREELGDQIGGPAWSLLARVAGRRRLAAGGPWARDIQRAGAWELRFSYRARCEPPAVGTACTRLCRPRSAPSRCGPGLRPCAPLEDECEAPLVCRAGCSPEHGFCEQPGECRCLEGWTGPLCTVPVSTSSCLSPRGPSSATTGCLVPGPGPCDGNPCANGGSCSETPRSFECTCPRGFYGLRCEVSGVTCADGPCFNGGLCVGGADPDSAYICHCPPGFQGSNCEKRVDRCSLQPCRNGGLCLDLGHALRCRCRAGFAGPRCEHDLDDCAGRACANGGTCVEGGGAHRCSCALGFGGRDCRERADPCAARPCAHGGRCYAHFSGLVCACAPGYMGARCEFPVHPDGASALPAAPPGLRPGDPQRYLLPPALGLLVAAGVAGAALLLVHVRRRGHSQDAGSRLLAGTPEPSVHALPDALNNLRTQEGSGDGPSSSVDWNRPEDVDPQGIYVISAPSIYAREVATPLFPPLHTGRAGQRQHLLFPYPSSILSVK
Experiment: Affinity determination by Surface Plasmon Resonance (SPR)
Format: binding
Conditions: 25° C., biotinylated human DLL3 immobilized on streptavidin sensor chip, 1:1 binding model; read-out: SPR KD
Procedure, shortened: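 Kinetic and affinity constants were derived by fitting sensorgrams to a 1:1 binding model. Graded compound concentrations flowed at 100 μL/minute in 20 mM phosphate running buffer with 2% DMSO over streptavidin-immobilized biotinylated human DLL3, reference-subtracted.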

Structure (SMILES)	Kd [nM]
CC[C@H](C)[C@H](NC(=O)[C@@H](NC(=O)C(Cc1c[nH]c2ccccc12)NC(C)=O)C(C)O)C(=O)N[C@H]1CSSC[C@@H](C(=O)N[C@@H](Cc2c[nH]c3ccccc23)C(=O)N2CCC[C@H]2C(=O)NCCOCCOCCOCCOCCC(=O)N[C@H](CCCCNC(=O)CN2CCN(CC(=O)O)CCN(CC(=O)O)CCN(CC(=O)O)CC2)C(N)=O)NC(=O)[C@H](CC(=O)O)NC(=O)[C@H](Cc2cnc[nH]2)NC(=O)[C@H](Cc2ccc3ccccc3c2)NC(=O)[C@H](CC(N)=O)NC(=O)[C@H](CC(N)=O)NC1=O (stereo partly drawn) [compound 270, Ac-W-T-I-C(3)-N-N-(2Nal)-H-D-C(3)-W-P-PEG4-[D-Lys(DOTA)]-NH2] (Ac-[ξW][Thr(3ξ)]ICNN[2Nal]HDCWP[PEG4][dK](DOTA)-NH2; disulfide 4-10)	< 1
CC[C@H](C)[C@H](NC(=O)[C@@H](NC(=O)C(Cc1c[nH]c2ccccc12)NC(C)=O)C(C)O)C(=O)N[C@H]1CSSC[C@@H](C(=O)N[C@@H](Cc2c[nH]c3ccccc23)C(=O)N2CCC[C@H]2C(=O)N[C@H](CCCCNC(=O)CCOCCOCCOCCOCCNC(=O)CN2CCN(CC(=O)O)CCN(CC(=O)O)CCN(CC(=O)O)CC2)C(N)=O)NC(=O)[C@H](CC(=O)O)NC(=O)[C@H](Cc2cnc[nH]2)NC(=O)[C@H](Cc2ccc3ccccc3c2)NC(=O)[C@H](CC(N)=O)NC(=O)[C@H](CC(N)=O)NC1=O (stereo partly drawn) [compound 271, Ac-W-T-I-C(3)-N-N-(2Nal)-H-D-C(3)-W-P-[D-Lys(PEG4-DOTA)]-NH2] (Ac-[ξW][Thr(3ξ)]ICNN[2Nal]HDCWP[dK]([PEG4-DOTA])-NH2; disulfide 4-10)	< 1
CC[C@H](C)[C@H](NC(=O)[C@@H](NC(=O)[C@H](Cc1c[nH]c2ccccc12)NC(C)=O)[C@@H](C)O)C(=O)N[C@H]1CSSC[C@@H](C(=O)N[C@@H](Cc2c[nH]c3ccccc23)C(=O)N2CCC[C@H]2C(=O)N[C@H](CCCCNC(=O)CN2CCN(CC(=O)O)CCN(CC(=O)O)CCN(CC(=O)O)CC2)C(N)=O)NC(=O)[C@H](CC(=O)O)NC(=O)[C@H](CCC(=O)O)NC(=O)[C@H](Cc2c[nH]c3ccccc23)NC(=O)[C@H](CC(N)=O)NC(=O)[C@H](CCC(=O)O)NC1=O [compound 273, Ac-W-T-I-C(3)-Glu-N-W-Glu-D-C(3)-W-P-[D-Lys(DOTA)]-NH2] (Ac-WTICENWEDCWP[dK](DOTA)-NH2; disulfide 4-10)	1 to 10
CC[C@H](C)[C@H](NC(=O)[C@@H](NC(=O)[C@H](Cc1c[nH]c2ccccc12)NC(C)=O)[C@@H](C)O)C(=O)N[C@H]1CSSC[C@@H](C(=O)N[C@@H](Cc2c[nH]c3ccccc23)C(=O)N2CCC[C@H]2C(=O)N[C@H](CCCCNC(=O)CN2CCN(CC(=O)O)CCN(CC(=O)O)CCN(CC(=O)O)CC2)C(N)=O)NC(=O)[C@H](CC(=O)O)NC(=O)[C@H](CCC(=O)O)NC(=O)[C@H](Cc2c[nH]c3ccccc23)NC(=O)[C@H](CC(N)=O)NC(=O)[C@H](CC(N)=O)NC1=O [compound 274, Ac-W-T-I-C(3)-N-N-W-Glu-D-C(3)-W-P-[D-Lys(DOTA)]-NH2] (Ac-WTICNNWEDCWP[dK](DOTA)-NH2; disulfide 4-10)	1 to 10
CC[C@H](C)[C@H](NC(=O)[C@@H](NC(=O)[C@H](Cc1c[nH]c2ccccc12)NC(C)=O)[C@@H](C)O)C(=O)N[C@H]1CSSC[C@@H](C(=O)N[C@@H](Cc2c[nH]c3ccccc23)C(=O)N2CCC[C@H]2C(=O)N[C@H](CCCCNC(=O)CN2CCN(CC(=O)O)CCN(CC(=O)O)CCN(CC(=O)O)CC2)C(N)=O)NC(=O)[C@H](CC(=O)O)NC(=O)[C@H](CCC(=O)O)NC(=O)[C@H](Cc2c[nH]c3ccccc23)NC(=O)[C@H](CCC(=O)O)NC(=O)[C@H](CCC(=O)O)NC1=O [compound 275, Ac-W-T-I-C(3)-Glu-Glu-W-Glu-D-C(3)-W-P-[D-Lys(DOTA)]-NH2] (Ac-WTICEEWEDCWP[dK](DOTA)-NH2; disulfide 4-10)	1 to 10
